For one data set, the target named is T1, hCA I (Homo sapiens, UniProt P00915).
T1 construct: made in house
The experiment in a line: CA inhibition, stopped-flow CO2 hydration assay. The format is biochemical. The conditions noted are these: stopped-flow technique; mean from three assays. The protocol: (§1) The CO2 hydration activity of the four hCA isoforms was monitored using an Applied Photophysics stopped-flow instrument. Phenol red (at a concentration of 0.2 mM) was used as an indicator, working at the absorbance maximum of 557 nm, with 10 mM HEPES (pH 7.4) as a buffer, and 20 mM NaClO4 (for maintaining constant the ionic strength), following the initial rates of the CA-catalyzed CO2 hydration reaction for a period of 10–100 s. To determine the kinetic parameters by Lineweaver-Burk plots and the inhibition constants, a concentration of CO2 between 1.7 to 17 mM was used. At least six measurements of the original 5–10% reaction were used to assess the initial velocity for each inhibitor. The uncatalyzed rates were determined and detracted from the total observed rates. Stock inhibitor solutions (10–100 mM) were prepared in distilled-deionized water, and dilutions up to 0.1 nM were done with the buffer test. […] The inhibition constants were obtained by non-linear least-squares methods using PRISM 6 and the Cheng-Prusoff equation, as reported earlier, and represent the mean from at least three different determinations.

The target of the next data set is T2, hCA II (Homo sapiens, UniProt P00918).
T2 construct: made in house
The experiment in a line: CA inhibition, stopped-flow CO2 hydration assay. The format is biochemical. To be noted: stopped-flow technique; mean from three assays. The protocol:
as §1

Another data set has as its target T3, hCA IX (Homo sapiens, UniProt Q16790).
T3 construct: made in house
Kind of data set: CA inhibition, stopped-flow CO2 hydration assay. The data set is classed as biochemical. The conditions noted are these: stopped-flow technique; mean from three assays. The protocol:
as §1

The next data set has as its target T4, hCA XII (Homo sapiens, UniProt O43570).
T4 construct: made in house
Kind of data set: CA inhibition, stopped-flow CO2 hydration assay. The data set is classed as biochemical. The conditions noted are these: stopped-flow technique; mean from three assays. The protocol: as §1

In the next data set the test system is MCF7 cells. The experiment in a line: Antiproliferative activity, MTT test. To be noted: Homo sapiens, MTT assay after 72 h exposure. The format is cell-based. The protocol: A series of synthesized indoline-5-sulfonamides was tested on the MCF7 cancer cell line under normoxia and hypoxia using the MTT test.
The MDR subline K562/4 [77] (kind gift of Dr. Alexander Shtil, Blokhin N.N. National Medical Research Center of Oncology) was obtained by stepwise selection of K562 cells for survival under continuous exposure to Dox. This subline expresses the MDR1 gene and functional P-gp and is characterized by a high resistance index for Dox. […] Cells in the logarithmic phase of growth were used in the experiments. The growth inhibitory activity of compounds was assessed by the MTT test based on the metabolism of the MTT reagent (3-[4,5-dimethylthiazol-2-yl]-2,5-diphenyltetrazolium bromide) (Applichem) in living cells, with modifications as described previously in [49]. Compounds at different concentrations in 100 μL of the appropriate medium were added, and the cells were grown for 72 h. The hypoxia (1% O2) conditions were simulated in Binder multigas incubator, as described in [49]. After incubation with compounds, the medium was removed, the MTT reagent that was dissolved in the medium was added to the final concentration of 0.2 mg/mL to each well, and the incubation was performed for 2 h. Then the cell supernatants were removed, and purple formazan crystals were dissolved in 100% DMSO (350 μL per well). Culture plates were gently shaken, and the absorbance was measured at 571 nm with a reference wavelength of 630 nm on a MultiScan reader (ThermoFisher, Waltham, MA, USA). The viability of the cells was expressed as a percentage of the control. Dose-response curves were analyzed by regression analysis using sigmoid curves (Log(concentration) vs. normalized absorbance).
All results were reported as means ± SD. One-way analysis of variance was used for the analysis of data. Differences were defined as significant at p < 0.05. GraphPad Prism7 (GraphPad Software, San Diego, CA, USA) was used for the determination of the half-maximal inhibitory concentration (IC50) values.
Background: Tetrazolium dyes change colour on reduction, which living cells bring about.

The next data set deals with A431 skin cancer cells. The experiment in a line: Antiproliferative activity, MTT test. The format is cell-based, human. To be noted: 72 h, normoxia. From the text: To evaluate the influence of CA inhibition on the antiproliferative activity, we selected five compounds 4b, f, m, n and 10 with different inhibition profiles against CA IX for in-depth testing on cancer cells with increased CA IX expression. The database www.proteinatlas.org (accessed on 13 October 2022) contains data on gene expression in various cell lines. According to the data obtained from this database, A431 cells express CA IX at a very high level, which distinguishes them from human cell lines belonging to other tissues [https://www.proteinatlas.org/ENSG00000107159-CA9/cell+line (accessed on 13 October 2022)]. A431 cells are skin cancer cells, and their growth has already been intensely analyzed in hypoxia. […] Moreover, Ren and colleagues described that hypoxia modulates cellular pathways in A431 cells, which are associated with radioresistance and enhanced migration. Given the observations described above, we were expecting to reveal the high antiproliferative activity of the selected compounds against skin cancer cells. […] In hypoxia, the activity of tested compounds was increased, but the 50% inhibition of growth was never achieved.
(§2) The MCF7 human breast, A431 human skin cancer cells and K562 (ATCC CCL-243) chronic myelogenous leukemia cells were obtained from the ATCC collection. The MDR subline K562/4 [77] […] The growth inhibitory activity of compounds was assessed by the MTT test based on the metabolism of the MTT reagent (3-[4,5-dimethylthiazol-2-yl]-2,5-diphenyltetrazolium bromide) (Applichem) in living cells, with modifications as described previously in [49]. […] Culture plates were gently shaken, and the absorbance was measured at 571 nm with a reference wavelength of 630 nm on a MultiScan reader (ThermoFisher, Waltham, MA, USA). The viability of the cells was expressed as a percentage of the control. Dose-response curves were analyzed by regression analysis using sigmoid curves (Log(concentration) vs. normalized absorbance).

The test system of another data set is K562 cells. Kind of data set: Antiproliferative activity, MTT test. The format is cell-based, human.
Description: Next, we examined the activity of the whole series of indoline-5-sulfonamides against leukemia cell line K562.
as §2, with “[77] (kind gift of Dr. Alexander Shtil, Blokhin N.N. National Medical Research Center of Oncology) was obtained by stepwise selection of K562 cells for survival under continuous exposure to Dox. This subline expresses the MDR1 gene and functional P-gp and is characterized by a high resistance index for Dox.” for “[77]”

In a further data set the test system is K562/4 cells. The experiment in a line: Reversal of chemoresistance to Dox, MTT test. The format is cell-based, human. From the text: Earlier, Kopecka and colleagues have shown that CA XII can interact with P-gp and influence its activity. Subsequently, silencing or inhibition of CA XII by chemical agents may restore the sensitivity to Dox of resistant K562 and other tumor cells. Given the potent inhibition of 4f against CA XII and the activity of 4e against K562, we examined their ability to reverse the chemoresistance of K562/4 with P-gp to Dox.
The MCF7 human breast, A431 human skin cancer cells and K562 (ATCC CCL-243) chronic myelogenous leukemia cells were obtained from the ATCC collection. The MDR subline K562/4 [77] (kind gift of Dr. Alexander Shtil, Blokhin N.N. National Medical Research Center of Oncology) was obtained by stepwise selection of K562 cells for survival under continuous exposure to Dox. This subline expresses the MDR1 gene and functional P-gp and is characterized by a high resistance index for Dox. The MCF7 and A431 cells were cultured in standard 4.5 g/L glucose DMEM medium (Gibco) supplemented with 10% FCS (HyClone), 2 mM L-glutamine, 50 U/mL penicillin, 50 µg/mL streptomycin (PanEco), 100 µg/mL sodium pyruvate (Santa Cruz) at 37 °C, 5% CO2 and 80–85% humidity in NuAire incubator. Suspension myelogenous leukemia cells (K562, K562/4) were propagated in RPMI-1640 (PanEco) with 5% FCS (HyClone), 2 mM L-glutamine, 100 U/mL penicillin, and 100 µg/mL streptomycin at 37 °C, 5% CO2, and 80–85% humidity in Binder incubator. Cells in the logarithmic phase of growth were used in the experiments. The growth inhibitory activity of compounds was assessed by the MTT test based on the metabolism of the MTT reagent (3-[4,5-dimethylthiazol-2-yl]-2,5-diphenyltetrazolium bromide) (Applichem) in living cells, with modifications as described previously in [49]. Compounds at different concentrations in 100 μL of the appropriate medium were added, and the cells were grown for 72 h. The hypoxia (1% O2) conditions were simulated in Binder multigas incubator, as described in [49]. After incubation with compounds, the medium was removed, the MTT reagent that was dissolved in the medium was added to the final concentration of 0.2 mg/mL to each well, and the incubation was performed for 2 h. Then the cell supernatants were removed, and purple formazan crystals were dissolved in 100% DMSO (350 μL per well). Culture plates were gently shaken, and the absorbance was measured at 571 nm with a reference wavelength of 630 nm on a MultiScan reader (ThermoFisher, Waltham, MA, USA). The viability of the cells was expressed as a percentage of the control. Dose-response curves were analyzed by regression analysis using sigmoid curves (Log(concentration) vs. normalized absorbance).
Figure 6 Susceptibility of resistant K562/4 line to combinations of Dox (25 µM) with indoline-5-sulfonamides 4e and 4f. […]

Where [1] appears, read: hypoxia (1% O2), read-out: IC50 against MCF7 Cells, Hypoxia.
The mark [2] stands for this setting: normoxia, read-out: IC50 against MCF7 Cells, Normoxia.

Structures are written as SMILES. Read-outs that look alike come from different tables or passages of the source.

T4 sequence (O43570 25-354): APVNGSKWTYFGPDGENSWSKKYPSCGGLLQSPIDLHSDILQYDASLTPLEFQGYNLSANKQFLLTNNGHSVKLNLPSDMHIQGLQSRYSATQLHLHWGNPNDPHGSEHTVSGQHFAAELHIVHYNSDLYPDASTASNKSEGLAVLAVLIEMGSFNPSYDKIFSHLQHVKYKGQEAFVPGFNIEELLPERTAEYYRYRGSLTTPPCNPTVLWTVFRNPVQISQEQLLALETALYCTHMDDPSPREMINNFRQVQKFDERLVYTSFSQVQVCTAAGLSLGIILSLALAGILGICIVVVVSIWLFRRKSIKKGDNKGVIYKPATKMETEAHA
T1 sequence (P00915 whole entry): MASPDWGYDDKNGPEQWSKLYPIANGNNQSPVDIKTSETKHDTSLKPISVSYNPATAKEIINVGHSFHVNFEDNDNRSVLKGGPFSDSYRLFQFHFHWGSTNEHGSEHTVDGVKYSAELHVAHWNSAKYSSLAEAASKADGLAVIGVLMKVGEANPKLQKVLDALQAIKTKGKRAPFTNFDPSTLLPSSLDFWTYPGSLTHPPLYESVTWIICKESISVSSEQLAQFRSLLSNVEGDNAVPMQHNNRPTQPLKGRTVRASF

What is called Ki is a measure of affinity in units of concentration, obtained from inhibition or displacement. Lower therefore signals higher affinity. For orientation: IC50 means the concentration that gives 50% inhibition. In general, melting point refers to the temperature, or range, at which the solid turns liquid. `NS(=O)(=O)c1ccc2c(c1)CCN2C(=O)c1cccc(F)c1` [Compound 4b, 1-(3-Fluorobenzoyl)indoline-5-sulfonamide] yielded a melting point of over 250 °C. This compound registered a Ki at hCA I of 0.0659 µM. The affinity at hCA II, expressed as Ki, was 0.0056 µM. Moreover, at hCA IX, the Ki is over 10 µM. In addition, on hCA XII, the Ki is over 10 µM. Further, the IC50 with MCF7 cells (setting [1]) was over 50 µM. The IC50 with MCF7 cells (setting [2]) is over 50 µM. For the same compound, the “inhibition of growth of A431 cells, normoxia” value with A431 skin cancer cells was “least active”.

The compound `NS(=O)(=O)c1ccc2c(c1)CCN2C(=O)c1c(F)c(F)c(F)c(F)c1F` [Compound 4e, 1-(Perfluorobenzoyl)indoline-5-sulfonamide] displayed a melting point of 187 to 189 °C. Further, the affinity on hCA I corresponds to a Ki of 0.0522 µM. For the same compound, on hCA II, the Ki was 0.0034 µM. The compound further yielded a Ki on hCA IX of 1.3 µM. The compound also returned a Ki on hCA XII of 0.127 µM. Besides, the IC50 in the data set with MCF7 cells (setting [1]) amounted to 20.2 ± 2 µM. Further, the IC50 in the data set with MCF7 cells (setting [2]) was 29.9 ± 2.7 µM. Moreover, the “concentration inhibiting growth of K562 cells” value in the data set on K562 cells is on record as 10 µM. Moreover, in the data set with K562/4 cells (combination with Dox (25 µM)), the “effect of combination with Dox on viable K562/4 cells” value is recorded as “decline of viable K562/4 cells”. For the same compound, in the data set with K562/4 cells (monoagent), the “cytotoxic activity against MDR subline K562/4 as monoagent” value is “low cytotoxic activity”.

As to `COc1cc(C(=O)N2CCc3cc(S(N)(=O)=O)ccc32)cc(OC)c1OC` [Compound 4m, 1-(3,4,5-Trimethoxybenzoyl)indoline-5-sulfonamide], the melting point was in the range of 248 to 250 °C. On hCA I, this compound returned an inhibitory constant (Ki) of 0.049 µM. Further, the Ki on hCA II turned out to be 0.003 µM. This compound also registered a Ki at hCA IX of over 10 µM. Also, at hCA XII, affinity was put at a Ki of 0.103 µM. Besides, the IC50 in the data set on MCF7 cells (setting [1]) came to 36.7 ± 3.2 µM. Further, the IC50 in the data set with MCF7 cells (setting [2]) was determined as 29.6 ± 2.2 µM. Besides, the “inhibition of growth of A431 cells, normoxia” value in the data set on A431 skin cancer cells was “least active”.

As for `NS(=O)(=O)c1ccc2c(c1)CCN2C(=O)c1ccc(F)cc1` [Compound 4c, 1-(4-Fluorobenzoyl)indoline-5-sulfonamide], the melting point is over 250 °C. The Ki at hCA I came to 0.0883 µM. The compound further came in with a Ki on hCA II of 0.0095 µM. Moreover, the Ki at hCA IX is 2.25 µM. This compound also had a Ki on hCA XII of over 10 µM. The IC50 in the data set with MCF7 cells (setting [1]) was determined as 32.7 ± 2.8 µM. In the data set with MCF7 cells (setting [2]), the IC50 is 40.6 ± 3.8 µM.

(Values after PMC9783868, “Indoline-5-Sulfonamides: A Role of the Core in Inhibition of Cancer-Related Carbonic Anhydrases, Antiproliferative Activity and Circumventing of Multidrug Resistance” (Pharmaceuticals, 2022).)
